Columns and labels:
Format in all cases: in vivo, SD rat
[1] = tested on: MIA (monosodium iodoacetate)-induced osteoarthritis; experiment: Bodyweight loading of hind limb in animal model of MIA-induced osteoarthritis (incapacitance tester); conditions: compared to MIA group; oral once a day for 21 days, measured every 7 days; FIG. 1
Protocol: To determine the effect of an extract of Alpinia oxyphylla, which has been prepared in the above Example 1, on bodyweight loading in an animal model of MIA-induced osteoarthritis, MIA as an osteoarthritis-inducing material (diluted to 60 mg/ml with 0.9% physiological saline) was administered in an amount of 50 μl to an articular cavity of a right hind limb of 7-week old SD rat to induce osteoarthritis. After that, the animal was orally administered with an extract of Alpinia oxyphylla (150 or 300 mg/kg) once a day for 21 days, while the percentage of bodyweight loading was measured every 7 days. As a positive control group, indomethacin (1 mg/kg) was used.
The bodyweight loading on hind limb was measured by using a paw weight tester (Incapacitance tester, Linton instrument Co., UK, Ser No. 01/45/25). In a tester holder, the rat with induced osteoarthritis tends to stand on a normal paw which has not been administered with MIA due to the pain occurring in the other paw, and thus balance between the weights of two paws was not maintained so that the weight of paw administered with MIA is measured to be relatively lighter than the weight of normal paw. […] Then, by using the weight of paw which has been measured accordingly, percentage of bodyweight loading (%) was calculated based on the following Formula 1. […]

[2] = tested on: IL-1β; experiment: mRNA expression of inflammatory factor in joint with induced osteoarthritis by PCR; conditions: compared to MIA-induced increase, FIG. 2
Source text: (§1) From a joint with induced osteoarthritis, mRNA was extracted and the expression of an inflammatory factor (IL-1β, IL-6, TNF-α and COX-2) and a cartilage degeneration-inducing factor (MMP-9) was examined by PCR.

[3] = tested on: IL-6; experiment: as above; conditions: compared to MIA-induced increase, FIG. 2
Source text: as §1

[4] = tested on: COX-2; experiment: as above; conditions: compared to MIA-induced increase, FIG. 2
Source text: as §1

[5] = tested on: TNF-α; experiment: as above; conditions: compared to MIA-induced increase, FIG. 2
Source text: as §1

[6] = tested on: MMP-9; experiment: mRNA expression of cartilage degeneration-inducing factor in joint with induced osteoarthritis by PCR; conditions: compared to MIA-induced increase, FIG. 2
Source text: as §1

`COc1ccc2c(c1)c(CC(=O)O)c(C)n2C(=O)c1ccc(Cl)cc1` [indomethacin] was tested, and the “percentage of bodyweight loading (%) of hind limb” value [1] was “higher than the MIA-induced osteoarthritis group”, the “expression of IL-1β (inflammatory factor)” value [2] was “decreased in significant sense” and the “expression of IL-6 (inflammatory factor)” value [3] was “decreased in significant sense”. The “expression of COX-2 (inflammatory factor)” value [4] was “decreased in significant sense”, the “expression of TNF-α (inflammatory factor)” value [5] was “decreased in significant sense” and the “expression of MMP-9 (cartilage degeneration-inducing factor)” value [6] was “decreased in significant sense”.
